Laboratory results from US11884650B2, “Substituted heterocyclic compounds” (BRISTOL-MYERS SQUIBB COMPANY, priority 2021, dated 2024).

Tests used:
[1] = Brain Penetration In Vivo Assay; set-up: species or system C57BL6 wild-type mice; settings: C57BL6, brain and plasma, 10 mg/kg, mouse, 10 mpk, po, read-out: Ratio of exposure in brain to plasma
Protocol: Brain Penetration In Vivo Assay
A pharmacokinetic study was performed using C57BL6 wild-type mice (n=3 per experiment) to determine brain and plasma exposure of compounds of the invention. The compound was administered orally in a solution of 5% ETHANOL; 90% PEG 300; 5% TPGS at 5 […] for a final concentration. of 10 mg/kg. Mice were euthanized 1 hour post-dose and plasma and brain were collected and frozen for analysis. Brain tissues were homogenized in a 1:1 volume of blank C57BL6 mouse plasma. Concentrations of the compound in plasma and brain homogenate were determined by LC-MS analysis.

[2] = in vitro; settings: human, Caco-2, pH 7.4
[3] = test system: IFNα-induced pSTAT5 in human whole blood (CD3 positive population); assay: IFNα-Induced STAT Phosphorylation in Human Whole Blood; type: cell-based; settings: 1 h incubation with compound, 1000 U/mL IFNα A/D for 15 min, read-out: Human Whole blood IFNa pSTAT5 IC50
Protocol: IFNα-Induced STAT Phosphorylation in Human Whole Blood
After an hour long incubation with compound, human whole blood (drawn with ACD-A as anticoagulant) was stimulated with 1000 U/mL recombinant human IFNα A/D (R&D Systems 11200-2) for 15 min. The stimulation was stopped by adding Fix/Lyse buffer (BD 558049). Cells were stained with a CD3 FITC antibody (BD 555916), washed, and permeabilized on ice using Perm III buffer (BD 558050). Cells were then stained with an Alexa-Fluor 647 pSTAT5 (pY694) antibody (BD 612599) for 60 min prior to analysis on the iQue Plus. The amount of pSTAT5 expression was quantitated by median fluorescence intensity after gating on the CD3 positive population.

[4] = test system: Caco-2 cells; settings: human, Caco-2, 2 h, 3 μM, pH 7.4

Molecule | Kp at 1 h [1] | Papp A→B at 2 h, 3 μM [2] [×10⁻⁶ cm/s] | efflux ratio at 2 h, 3 μM [2] | IC50 [3] [nM] | Caco-2 AB [4] [nm/s]
CCC(=O)c1cnc(NC(=O)C2CC2)cc1Nc1nccc(-c2ncn(C)n2)c1OC [A, reference compound] | 0.14 |  |  |  | 
CCC(=O)c1cnc(NC(=O)C2CC2)cc1Nc1cccc(-c2ncn(C)n2)c1OC [B, reference compound] | 0.05 |  |  |  | 
CCC(=O)c1cnc(NC(=O)C2CC2)cc1Nc1nccc(-c2cnn(C)n2)c1OC [Example 1, N-(4-((3-methoxy-4-(2-methyl-2H-1,2,3-triazol-4-yl)pyridin-2-yl)amino)-5-propionylpyridin-2-yl)cyclopropanecarboxamide] | 3.1 | 66.3 | 0.1 | 37 | 
CCC(=O)c1cnc(NC(=O)C2CC2)cc1Nc1nccc(-c2cnn(C3CC3)n2)c1OC [Example 2, N-(4-((3-methoxy-4-(2-cyclopropyl-2H-1,2,3-triazol-4-yl)pyridin-2-yl)amino)-5-propionylpyridin-2-yl)cyclopropanecarboxamide] |  | 18 | 0.2 | 400 | 
CCC(=O)c1cnc(NC(=O)C2CC2)cc1Nc1cccc(-c2cnn(C)n2)c1OC [Example 3, N-(4-((2-methoxy-3-(2-methyl-2H-1,2,3-triazol-4-yl)phenyl)amino)-5-propionylpyridin-2-yl)cyclopropanecarboxamide] | 3 | 18.3 | 0.5 | 460 | 
CCC(=O)c1cnc(NC(=O)C2CC2)cc1Nc1ccc(F)c(-c2cnn(C)n2)c1OC [Example 4, N-(4-((4-fluoro-2-methoxy-3-(2-methyl-2H-1,2,3-triazol-4-yl)phenyl)amino)-5-propionylpyridin-2-yl)cyclopropanecarboxamide] |  | 54.5 | 0.4 | 280 | 
N-(4-((3-fluoro-2-methoxy-3-(2-methyl-2H-1,2,3-triazol-4-yl)phenyl)amino)-5-propionylpyridin-2-yl)cyclopropanecarboxamide [Example 5] |  |  |  | 710 | 258
N-(4-((3-methyl-2-methoxy-3-(2-methyl-2H-1,2,3-triazol-4-yl)phenyl)amino)-5-propionylpyridin-2-yl)cyclopropanecarboxamide [Example 6] |  |  |  | 770 | 152
